What was measured:
ASMase = ASMase activation in HCAEC; type: cell-based, human; conditions: cisplatin 0.1-50 μM
Experimental: HCAEC were obtained from Clonetics™ Coronary Artery Endothelial Cell Systems (Cambrex Bio Science Inc.). For HCAEC culturing and sub-culturing Clonetics cell system components were used: EBM®-2, Endothelial Cell Basal Medium-2 with addition of Clonetics EGM-2-MV SingleQuots containing growth supplements (Cambrex) (Biomedical Technologies, Inc.). For sub-culturing, monolayers were dissociated with Clonetics® Trypsin/EDTA solution for 2-3 min at 22° C. at a split ratio of 1:4 to expand the cell population for experiments. HCAEC cultures were maintained at 37° C. in 5% CO2 humidified incubators.
ASMase activity was quantified by radioenzymatic assay using [^14C-methylcholine]sphingomyelin (Amersham) as substrate as described (Schissel et al. J Biol Chem, 271, 18431-18436, 1996). Cell lysates were incubated with [^14C-methylcholine]-sphingomyelin substrate (0.026 mCi/9.5 nmol) in 250 mM sodium acetate, pH 5.0 supplemented with 0.1% Triton X-100 and 1 mM EDTA or 0.1 mM ZnCl. Reactions were terminated after 1 h with CHCl3:MeOH:1N HCl (100:100:1, v/v/v), and [^14C-methylcholine]phosphocholine product in the aqueous layer of the Folch extract was quantified using a Beckman Packard 2200 CA Tricarb scintillation counter. For detection of ASMase activity in patients, 10 μl of serum was used. […]

BAEC = experiment: Apoptosis in vitro (Hoechst nuclear staining) in BAEC; type: cell-based, bovine; conditions: bovine endothelial cells; cisplatin up to 50 μM; etoposide 50 μM alone, 8 hours
Experimental: Apoptosis was assessed in vitro by examining morphologic changes in nuclear chromatin using bis-benzimide trihydrochloride (Hoechst #33258; Sigma-Aldrich, Milwaukee WI). BAEC and HCAEC monolayer cultures were first detached using 0.25% trypsin and 0.02% EDTA in HBSS and then combined with the floating population of cells. The cell pellet was washed in PBS, resuspended in 3% paraformaldehyde, and incubated for 10 min at 22° C. Following the removal of fixative, cells were resuspended in PBS containing 8 μg/ml of Hoechst-33258. Following a 15-min incubation at 22° C., cells were placed on a glass slide, and scored for the incidence of apoptotic chromatin changes using fluorescence microscope.
Since the ASMase/ceramide pathway is known to play a critical role in endothelial injury and dysfunction, BAEC and HCAEC were treated with paclitaxel (100 nM), etoposide (50 μM), and cisplatin (0.1-50 μM), and endothelial apoptosis was assessed.
To set the basis for experiments involving evaluation of anti-angiogenic therapy in combination with chemotherapy, and the role of ASMase/ceramide pathway in this process, the effects of various factors on the chemotherapy induced cell death were assessed. BAEC were pre-incubated for 30 min with bFGF (2 ng/mL), VEGF (2 ng/mL) or nystatin (30 μg/mL) prior to treatment with etoposide (50 μM), and apoptosis was evaluated after 8 hours using bis-benzamide trihydrochloride staining (FIG. 3).

With `N.N.[Cl][Pt][Cl]` [cisplatin] the ASMase activation (ASMase) was “failed to activate ASMase” and the Apoptotic response (BAEC) was “failed to trigger an appropriate apoptotic response”.

Source: patent publication US12036212B2, “Enhancement of tumor response to chemotherapy by activation of the asmase/ceramide pathway through timed administration of a short-acting anti-angiogenic agent” (Memorial Sloan-Kettering Cancer Center, priority 2014, dated 2024)
